One data set concerns cough. In words: antitussive activity: cough induced by sulfuric acid atmosphere (Chen et al. 1960), oral. Type of data set: in vivo, guinea pig (male). As to conditions: for inhibition of the cough (individual animal) / number of coughs after administration (individual animal) / inhibition of the cough, average value: one hour after administration; for inhibition of the cough (individual animal) / number of coughs after administration (individual animal): individual animals. The method, then:
This activity has been compared with the activity of codeine and dextromethorphan by the experimental mode of Chen, J.Y.P. and col. (1960), consisting in exciting guinea pigs subjected to an atmosphere of sulfuric acid to cough.
There are used guinea pig males having a weight of 300-400 grs which are treated in respective lots, with codeine (40 mg/kg.; n=6), dextromethorphan (40 mg/kg.; n=6), theophane (20 mg/kg.; n=5) and theophane (40 mg/kg.; n=6), wherein "n" signifies the number of animals tested in the respective lots and the other data in the parentheses refers to the dosage amount, e.g. 40 mg/kg. The numbers of occurrences of coughing of each animal before and one hour after the oral administration of the drug are measured.
In Table I are detailed the results obtained by the experiment, before and after the administration of the drug as well as the percentage of inhibition of the cough.

Another data set concerns cardiovascular system. Kind of data set: cardiovascular activity (technique of Smith, 1961). Type of data set: in vivo, guinea pig (male). Conditions: 0.5 to 10 mg/kg. The source says: The cardiovascular activity (technique of Smith, 1961) and the neuropharmacological activity (Irwin test) of the theophane product have been studied respectively in guinea pigs and rats (males).

The test system of data set [1] is tracheal chain of guinea pigs. In words: bronchodilatory activity in vitro, tracheal chain of guinea pigs (Castillo and de Beer), histamine as bronchoconstrictor. Also on record: species or system guinea pig (male). Conditions: for time elapsed until obtaining an activity of 50%: 5×10^-4 molar. An excerpt:
The bronchodilatory activity "in vitro" of the compound of the present invention has been studied, using the method of tracheal chain of guinea pigs, described by J. C. Castillo and E. J. J. de Beer in Pharmacol.Expt. Therap., 90, 104. The trachea of male guinea pigs having a weight of 250-350 grs were extracted; then the rings are sectioned, always endeavoring that the trachea is bathed by the corresponding perfusion liquid and under oxygenation conditions for joining posteriorly the tracheal rings by means of a silk yarn forming the chain giving response to the drugs to be administered. The chain is placed in the bath of organs fixed to the registering arm of a chymograph. The bath is to be maintained at the constant temperature of 37.5° C. and using, as the liquid, the Krebs-Hanselett solution.
As a bronchoconstrictor drug, there is used histamine at a concentration of 1×10^-5 molar.
The bronchodilatory activity of theophane and theophylline have been compared, for various dosages, and the results obtained are presented in Table II.

Data set [2] has as its system Sprague-Dawley rats and fetuses of the first generation. Kind of data set: fetal and teratogenous toxicity, oral during organogenesis. Type of data set: in vivo, rat (Sprague-Dawley). Conditions: 20, 65 and 130 mg/kg/day oral.
The test system of the next data set is rat. In words: acute toxicity in the rat (Litchfield and Wilcoxon). Type of data set: in vivo. An excerpt:
(§1) The acute toxicity of theophane has been studied orally and i.p. in the mouse and in the rat. The LD50 and the limits of reliance have been determined by the technique of Litchfield and Wilcoxon. Table III summarizes the values of the obtained LD50, as well as of LD0.

Another data set deals with mouse. Kind of data set: acute toxicity in the mouse (Litchfield and Wilcoxon). The data set is classed as in vivo.
Text: as §1

Data set [3] has as its system auxotrophic S.typhimurium strains. Kind of data set: mutagenic effect (Ames). As to conditions: six dosages in DMSO, presence and absence of metabolic activation. Type of data set: cell-based. The source says:
The possible mutagenic effect of theophane has been evaluated according to the text described by Ames, B. N. and cols (1975) using auxotrophic S.typhimurium strains for the histidine. The product has been studied at six different dosages, dissolved in DMSO, and in the presence and absence of a system of metabolic activation and in front of positive controls.

A further data set concerns Wistar rats. In words: subacute toxicity, repeated oral administration over 1 month. As to conditions: 20, 60 and 120 mg/kg/day oral, both sexes. The data set is classed as in vivo, rat (Wistar). The method, then:
The subacute toxicity of theophane has been studied after repeated oral administrations over a period of 1 month in Wistar rats of both sexes. The theophane dosage used was 20 mg/kg/day, 60 mg/kg/day and 120 mg/kg/day. One lot of control animals received only excipient.

The mark [4] stands for this setting: 40 mg/kg oral, n=6, codeine p < 0.001, dextromethorphan and theophane p < 0.005.

“And” between values parts separate entries of the source, which are not always exact repeats. Equal values may be shown once. “Also recorded” adds a separate entry of the source.

For the compound `COc1ccc2c3c1O[C@H]1[C@@H](O)C=C[C@H]4[C@@H](C2)N(C)CC[C@@]341` [Codeine, reference compound], in the data set with cough (40 mg/kg oral), the “inhibition of the cough (individual animal)” value was 71.4% and 100.0% and 81.8%; the “number of coughs after administration (individual animal)” value (from here on “number of coughs after administration”) was 2 and 0. In the data set with cough (setting [4]), the “inhibition of the cough, average value” is on record as 92.2 ± 12.5%.

With `COc1ccc2c(c1)[C@]13CCCC[C@@H]1[C@H](C2)N(C)CC3` [Dextromethorphan, reference compound], in the data set on cough (40 mg/kg oral), the “inhibition of the cough (individual animal)” value was 33.3% and 60.0% and 100.0% and 75.0% and 50.0%; the “number of coughs after administration” value was 4 and 6 and 0 and 1. Besides, in the data set with cough (setting [4]), the “inhibition of the cough, average value” came out at 69.7 ± 27.0%.

Turning to `COc1ccc2c(c1)[C@@]13CCCC[C@H]1[C@@H](C2)N(C)CC3.Cn1c(=O)c2c(ncn2CC(=O)O)n(C)c1=O.Cn1c(=O)c2c(ncn2CC(=O)O)n(C)c1=O` [Theophane, complex of 3-methoxy-N-methylmorphinan with 7-theophyllineacetic acid (1:2)], the “effects on the cardiovascular system” value with cardiovascular system is “do not produce effects on the cardiovascular system”. For the same compound, the “bronchodilatory activity in vitro compared with theophylline (in words)” value in data set [1] is given as “bronchodilatory activity "in vitro" at lower concentrations than theophylline”. Moreover, the bronchodilatory activity in data set [1] (1 × 10^-3 molar, 1000 µM) amounted to 100%; in data set [1] (1 × 10^-4 molar, 100 µM) it was 54.6%; in data set [1] (1 × 10^-5 molar, 10 µM), 0%; in data set [1] (2 × 10^-4 molar, 200 µM), 37.5%; in data set [1] (5 × 10^-4 molar, 500 µM) it was 85.3%; in data set [1] (5 × 10^-5 molar, 50 µM), 8.3%. Moreover, the “time elapsed until obtaining an activity of 50%” value in data set [1] was 280 s. Also, the teratogenous effects result in data set [2] is on record as “does not induce teratogenous effects”. Also, the “toxic effects to gestating females and their offspring” value in data set [2] was “does not produce toxic effects to the gestating females and their offspring”. Besides, the “inhibition of the cough (individual animal)” value was 33.3% and 28.57% and 66.6% and 60.0% with cough (20 mg/kg oral); 60.0% and 72.2% and 30.7% and 100.0% with cough (40 mg/kg oral). Further, the “number of coughs after administration” value with cough (20 mg/kg oral) was 4 and 10 and 1 and 2; in the data set with cough (40 mg/kg oral), 2 and 5 and 9 and 0 and 4. The “inhibition of the cough, average value” is reported as 44.35 ± 17.5% in the data set with cough (20 mg/kg oral, n=5, p < 0.005) and 70.5 ± 26.6% in the data set with cough (setting [4]). Further, the “antitussive activity (in words)” value in the data set on cough (oral, 20 and 40 mg/kg, guinea pigs) was “potent antitussive activity; also recorded: antitussive activity which is significant with regard to its proper control”. The “antitussive activity based on the 3-methoxy-N-methylmorphinan content, compared with dextromethorphan” value with cough (referring to the weight index, 40 mg/kg) is reported as “greater antitussive activity”. Further, the LD0 in the data set on rat (i.p.) is listed as 156.4 mg/kg; in the data set on rat (oral), 204.4 mg/kg; in the data set with mouse (i.p.) it was 102.3 mg/kg; in the data set with mouse (oral), 182.2 mg/kg. Besides, the mutagenic activity result in data set [3] is given as “does not have any mutagenic activity”. Also, the reversion increase entry in data set [3] was “No reversion increase could be observed”. Moreover, the “subacute toxicity (mortality, weight, diet consumption, hematic, biochemical, urinary parameters, histopathology)” value with Wistar rats is reported as “null toxicity”.

Broadly, the inhibition is the change of the read-out against control, counted positive when it falls. A low value points to a response near the control. On to `Cn1c(=O)c2[nH]cnc2n(C)c1=O` [Theophylline], for which the “time elapsed until obtaining an activity of 50%” value in data set [1] was 180 s. Also, the inhibition at 1000 µM in data set [1] (Cavia porcellus, 1 × 10^-3 molar) worked out at 100%. Further, in data set [1] (Cavia porcellus, 1 × 10^-4 molar), the inhibition at 100 µM is 10.4%. Also, testing at 10 µM in data set [1] (Cavia porcellus, 1 × 10^-5 molar) gave an inhibition of 0%. Further, the inhibition at 200 µM in data set [1] (Cavia porcellus, 2 × 10^-4 molar) was determined as 30%. In data set [1] (Cavia porcellus, 2 × 10^-5 molar), this compound returned an inhibition at 20 µM of 6.25%. In data set [1] (Cavia porcellus, 5 × 10^-4 molar), this compound had an inhibition at 500 µM of 59.1%.

These data come from US4514404A, “Process for obtaining complex of 3-methoxy-N-methylmorphinan with 7-theophyllineacetic acid (1:2)” (Prodes, S.A., priority 1982, dated 1985).
